From patent publication US7491707B1, “Synthetic lipid-a-analogs and uses thereof” (Biomira, Inc., priority 1999, dated 2009)
“Also recorded” adds a separate entry of the source.

Legend:
[1] = system: T-cell; test: T-cell proliferation (3H thymidine incorporation) of lymph node lymphocytes from mice immunized with MUC1-based liposomal vaccine adjuvanted with Lipid-A analog; format: in vivo, C57-Black mice; details: for T-cell-Proliferation (CPM): s.c. liposomal vaccine 40 μg BP1-148 + 20 μg Lipid-A analog per dose, nine days after injection, boosting antigen BP1-151; for T-cell blastogenesis: in words, liposomal vaccine formulations in mice, FIG. 31-FIG. 33
Description: (§1) Typically, the liposomal formulation was composed of 400 μg of MUC1-based lipopeptide BP1-148, H2N-[…](Pal)G-OH, 200 μg of Lipid-A analog, 6.94 mg of cholesterol, 1.46 mg of dimyristoyl phosphatidylglycerol ([…]) and 11.62 mg of dipalmitoyl phosphatidylcholine (DPPC) per 1 ml of saline (0.9% NaCl solution).
(§2) The liposomal constructs were formulated by first dissolving the phospholipids, cholesterol and Lipid A analog in tert-butanol at about 53° C. Lipopeptide and water (5%, v/v) were then added to the tert-butanol solution. The resulting clear 95% tert-butanol solution was injected into about 4 volumes of rapidly stirred water at about 50° C., using a glass syringe with an 18-gauge needle. The small unilamellar vesicles (SUV) formed in this process were cooled, sterilized by filtration through a 0.22 μm membrane filter, filled into vials and lyophilized. The dry powder was re-hydrated with sterile saline before injection, resulting in the formation of multilamellar large vesicles (MLV). The liposomes formed are used to immunize mice.
(§3) Groups of C57-Black mice were immunized subcutaneously with the liposomal vaccine containing 40 μg of MUC1-based lipopeptide BP1-148 (FIG. 34), which has the peptide sequence of H2N-[…](Pal) G-OH, and 20 μg of Lipid-A analog per dose. Nine days after vaccine injection mice were sacrificed and lymphocytes were taken from the draining lymph nodes (local response) or from the spleens (systemic response) to determine the immune response in each group. The lymphocytes taken from immunized mice were incubated in in vitro cultures in the presence of MUC1-based boosting antigen BP1-151, which has the peptide sequence H2N-[…]-OH.
T-cell proliferation was evaluated using a standard ^3H thymidine incorporation assay. Briefly, nylon wool passed inguinal lymph node lymphocytes from each mouse were added to a culture containing 106 native mitomycin C treated syngeneic splenocytes, which serves as antigen presenting cells (APCs). To each well 20 μg of MUC1-based boosting peptide BP1-151, H2N-[…]-OH (single letter amino acid code, Table 8), was added for positive control; and cultures containing no antigen or peptide BP1-72, which has the peptide sequence H2N-[…]-OH, were used as negative control. The culture was incubated for 72 h in a total volume of 250 μl well, followed by adding 1 μCi of ^3H-thymidine in a volume of 50 μl. The plates were incubated for an additional 18-20 h. Cells were harvested and [^3H]dTh incorporation was measured by liquid scintillation counter. T-cell proliferation results corresponding to various liposomal vaccines adjuvanted, with different Lipid-A analogs are summarized in Tables 1-Table 3 and FIG. 31-FIG. 33.

[2] = system: Interferon-gamma (IFN-γ); test: Interferon-gamma (IFN-γ) production in cell culture supernatants by ELISA, lymphocytes of mice immunized with adjuvanted MUC1 liposomal vaccine; format: in vivo, C57-Black mice; details: for Interferon-gamma (IFN-γ, pg/ml): s.c. liposomal vaccine 40 μg BP1-148 + 20 μg Lipid-A analog per dose, nine days after injection; for interferon-gamma production: in words, liposomal vaccine formulations in mice, FIG. 31-FIG. 33
Description: as §1, §2, §3
Interferon-gamma (IFN-γ) levels were determined in the cell culture supernatants using enzyme-linked immunoabsorbent assay (ELISA). 96-Well plates were coated with 50 μl of catcher Mabs in 50 μl of R4.6AZ at 37° C. for 30 min. The plates were then washed and incubated with test samples for 45 min. After two washes the second biotinylated antibody, XMG1.2 was added. After washing, peroxidase-conjugated streptavidin was added and incubated again for 30 min. Finally, 100 μl of horseradish peroxidase (HRPO) substrate solution was added. The optical density was measured with a Thermomax ELISA reader at 405 nm wavelength in kinetic mode for 10 min. The interferon-gamma (IFN-γ) levels corresponding to various Lipid-A analogs are shown in Table 1-Table 3 and FIG. 31-FIG. 33.

[3] = system: immune response to MUC1-based lipopeptide BP1-148; test: Adjuvanticity of Lipid-A analogs in liposomal vaccine with MUC1 lipopeptide BP1-148 (T-cell blastogenesis and IFN-γ production); format: in vivo, mice; details: in words; liposomal formulations with BP1-148 in mice, FIGS. 31-33
Text: Liposome formulations have been used to evaluate the adjuvant properties of various synthetic Lipid-A structures and the immune responses to a synthetic lipopeptide antigen BP-148, H2N-[…](Pal)G-OH (FIG. 34), a modified 25-amino-acid sequence derived from tumor-associated MUC1 mucin. The commercially available Lipid-A product, which is currently under clinical evaluation as an adjuvant for vaccine programs, was used for comparison. The natural Lipid-A product, purchased from AVANTI, contained a mixture of Lipid-A analogs extracted from Salmonella bacterial cell wall and is designated as Natural Lipid-A in this invention.
Thus, the liposomal formulations containing the synthetic lipopeptide antigen, BP1-148, and Lipid-A analogs 33, 48, 54, 58, 70, 77, 86, 94, 102, 104 or Natural Lipid-A, were used to immunize mice to measure their immune response in terms of T-cell blastogenesis and interferon-gamma (IFN-γ) production. The compounds were tested in three groups at different time and their preliminary results are shown separately in FIGS. 31-33. As the variations are attributed to different factors such as animal groups and experimental factors, the data from different groups will not be compared.
as §3

SMILES	T-cell-Proliferation (CPM) ([1]; Table 2, second test group)	T-cell blastogenesis [1]	Interferon-gamma (IFN-γ, pg/ml) ([2]; Table 2, second test group) [pg/mL]	interferon-gamma production [2]	adjuvant activity compared to Natural Lipid-A (Lipid-A preparation of bacterial origin) [3]	T-cell-Proliferation (CPM) ([1]; Table 3, third test group)	Interferon-gamma (IFN-γ, pg/ml) ([2]; Table 3, third test group) [pg/mL]	T-cell-Proliferation (CPM) ([1]; Table 1, first test group)	Interferon-gamma (IFN-γ, pg/ml) ([2]; Table 1, first test group) [pg/mL]
CCCCCCCCCCCCCC(=O)O[C@H](CCCCCCCCCCC)CC(=O)N[C@H]1[C@H](OC[C@H]2OC(O)[C@H](NC(=O)C[C@@H](CCCCCCCCCCC)OC(=O)CCCCCCCCCCCCC)[C@@H](OCCC)[C@@H]2O)O[C@H](CO)[C@@H](OP(=O)(O)O)[C@@H]1OC(=O)C[C@@H](CCCCCCCCCCC)OC(=O)CCCCCCCCCCCCC (stereo partly drawn) [Compound 70, 2-Deoxy-6-O-{2-deoxy-2-[(3R)-3-tetradecanoyloxytetradecanamido]-4-O-phosphono-3-O-[(3R)-3-tetradecanoyloxytetradecanoyl]-β-D-glucopyranosyl}-3-O-propyl-2-[(3R)-3-tetradecanoyloxytetradecanamido]-α/β-D-glucopyranose]	25034	significant T-cell blastogenesis	17321	high levels of interferon-gamma	as effective				
CCCCCCCCCCCCO[C@H](CCCCCCCCCCC)CC(=O)O[C@H](CCCCCCCCCCC)CC(=O)N[C@H]1C(O)O[C@H](CO[C@@H]2O[C@H](CO)[C@@H](OP(=O)(O)O)[C@H](OC(=O)C[C@@H](CCCCCCCCCCC)OCCCCCCCCCCCC)[C@H]2NC(=O)C[C@H](O)CCCCCCCCCCC)[C@@H](O)[C@@H]1O (stereo partly drawn) [Compound 104, 2-Deoxy-6-O-{2-deoxy-4-O-phosphono-2-[(3R)-3-hydroxytetradecanamido]-3-O-[(3R)-3-dodecyloxytetradecanoyl]-β-D-glucopyranosyl}-2-{(3R)-3-[(3R)-3-dodecyloxytetradecanoyloxy]-tetradecanamido}-α/β-D-glucopyranose]		significant T-cell blastogenesis		high levels of interferon-gamma	similar; also recorded: as effective	12635	14669		
CCCCCCCCCCCCO[C@H](CCCCCCCCCCC)CC(=O)N[C@H]1[C@H](OC[C@H]2OC(O)[C@H](NC(=O)C[C@@H](CCCCCCCCCCC)OC(=O)C[C@@H](CCCCCCCCCCC)OCCCCCCCCCCCC)[C@@H](O)[C@@H]2O)O[C@H](CO)[C@@H](OP(=O)(O)O)[C@@H]1OC(=O)C[C@@H](CCCCCCCCCCC)OCCCCCCCCCCCC (stereo partly drawn) [Compound 102, 2-Deoxy-6-O-{2-deoxy-4-O-phosphono-2-[(3R)-3-dodecyloxytetradecanamido]-3-O-[(3R)-3-dodecyloxytetradecanoyl]-β-D-glucopyranosyl}-2-{(3R)-3-[(3R)-3-dodecyloxytetradecanoyloxy]-tetradecanamido}-α/β-D-glucopyranose]		significant T-cell blastogenesis		high levels of interferon-gamma	similar; also recorded: as effective	13389	10587		
CCCCCCCCCCCCCC(=O)O[C@H](CCCCCCCCCCC)CC(=O)N[C@H]1[C@H](OC[C@H]2OC(O)[C@H](NC(=O)C[C@@H](CCCCCCCCCCC)OC(=O)CCCCCCCCCCCCC)[C@@H](O)[C@@H]2O)O[C@H](CO)[C@@H](OP(=O)(O)O)[C@@H]1OC(=O)C[C@@H](CCCCCCCCCCC)OC(=O)CCCCCCCCCCCCC (stereo partly drawn) [Compound 54, 2-Deoxy-6-O-{2-deoxy-4-O-phosphono-2-[(3R)-3-tetradecanoyloxytetradecanamido]-3-O-[(3R)-3-tetradecanoyloxytetradecanoyl]-β-D-glucopyranosyl}-2-[(3R)-3-tetradecanoyloxytetradecanamido]-α/β-D-glucopyranose]	32976	significant T-cell blastogenesis	36166	high levels of interferon-gamma	as effective				
CCCCCCCCCCCCCCCC(=O)O[C@H](CCCCCCCCCCC)CC(=O)N[C@H]1C(O)O[C@H](CO[C@@H]2O[C@H](CO)[C@@H](OP(=O)(O)O)[C@H](OC(=O)C[C@@H](CCCCCCCCCCC)OC(=O)CCCCCCCCCCCCC)[C@H]2NC(=O)C[C@@H](CCCCCCCCCCC)OC(=O)CCCCCCCCCCC)[C@@H](O)[C@@H]1O (stereo partly drawn) [Compound 48, 2-Deoxy-6-O-{2-deoxy-2-[(3R)-3-dodecanoyloxytetradecanamido]-4-O-phosphono-3-O-[(3R)-3-tetradecanoyloxytetradecanoyl]-β-D-glucopyranosyl}-2-[(3R)-3-hexadecanoyloxytetradecanamido]-α/β-D-glucopyranose]	28149	significant T-cell blastogenesis	18261	high levels of interferon-gamma	as effective			14112	2430
CCCCCCCCCCCCO[C@H](CCCCCCCCCCC)CC(=O)N[C@H]1[C@H](OC[C@H]2OC(O)[C@H](NC(=O)C[C@@H](CCCCCCCCCCC)OCCCCCCCCCCCC)[C@@H](OC(=O)C[C@H](O)CCCCCCCCCCC)[C@@H]2O)O[C@H](CO)[C@@H](OP(=O)(O)O)[C@@H]1OC(=O)C[C@@H](CCCCCCCCCCC)OCCCCCCCCCCCC (stereo partly drawn) [Compound 94, 2-Deoxy-6-O-{2-deoxy-4-O-phosphono-2-[(3R)-3-dodecyloxytetradecanamido]-3-O-[(3R)-3-dodecyloxytetradecanoyl]-β-D-glucopyranosyl}-3-O-[(3R)-3-hydroxytetradecanoyl]-2-[(3R)-3-dodecyloxytetradecanamido]-α/β-D-glucopyranose]		significant T-cell blastogenesis		low		10882	2150		
